Patent US11793420B2, “Ingestible device for delivery of a dispensable substance” (Biora Therapeutics, Inc., priority 2016, dated 2023)

Target: Human TNFα (Homo sapiens, UniProt P01375)
Assay: AlphaLISA competitive inhibition assay of drug recovered from bellows or syringe

Human TNFα, sequence (P01375 77-233 limits assumed): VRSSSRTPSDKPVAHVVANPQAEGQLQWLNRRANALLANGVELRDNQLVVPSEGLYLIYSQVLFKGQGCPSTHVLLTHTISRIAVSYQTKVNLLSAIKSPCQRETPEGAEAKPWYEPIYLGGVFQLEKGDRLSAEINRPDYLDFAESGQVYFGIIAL

For adalimumab [Exemptia], the “shift of bellows curves” value (after 24 hours (FIG. 86), within the error bars) was “slight right shift”, the “IC50 values of the drug dispensed from the bellows versus standard dispensation method” value (bellows vs. standard dispensation method (Table 6)) was “comparable” and the “impact of bellows on drug function” value (silicone or PVC bellows, shelf lives of 4, 24 hours, or 336 hours) was “do not negatively impact the drug function”.
